Laboratory results taken from patent publication US8445516B2, “Pharmaceutical composition for promoting angiogenesis” (Otsuka Pharmaceutical Co., Ltd., priority 2004, dated 2013).

Experiments:
Assay type in all cases: cell-based
[1] = tested on: human aortic endothelial cells; test: Vascular endothelial cell migration (48 well micro chemotaxis chamber); conditions: for Number of Migration cell: 4 hours, mean ± SE, control 34 ± 8
Method: The test was conducted according to a report by Witzenbichler, B. et al. (J. Biol. Chem., 273, 18514-18521, 1998). Briefly, human aortic endothelial cells (Cambrex Corp.) were cultured in MCDB131 medium to confluent state. Cell migration was tested by using a 48 well micro chemotaxis chamber (Neuro Probe Inc.). The Test Compound A was added into the lower layer of a well, while cells, 1×10^4 cells per well, were added into the upper layer, and those were cultured for 4 hours. Cells were immobilized with methanol and cells in the upper layer of a filter were removed, and cells migrated on the filter were stained with Diff Quick (International Reagents Corp.), then numbers of migrated endothelial cells observed from digital camera image were counted by using Scion Image (Scion Corp.). The statistical analysis was performed as follows: Data were analyzed using Williams' test after linear regression analysis. The difference between test compound groups and non-treated group were considered statistical significant at P<0.05.

[2] = tested on: thoracic aortic ring specimens of rat; test: Rat aortic ring culture: angiogenesis promoting action (newly grown micro-vessels); conditions: for Number of micro-vessels: 7 days culture, mean ± SE, control 20 ± 2
Method: The test was conducted according to a report by Nicosia R. F. et al. (In Vitro Cell Dev Biol 26, 119-128, 1990). Briefly, thoracic aorta was removed from rat under ether anesthesia, and aortic rings were obtained by cross-sectioning at 1 mm intervals. The aortic rings were embedded into type I collagen gel (Koken Co.). Further, MCDB131 medium (Gibco BRL Co.) containing the Test Compound A was added to the upper layer, and the medium was exchanged every three days. After 7 days from the culture, micro-vessels newly grown from a cutting section of the aortic ring specimens were stained with alkaline phosphatase, then numbers of micro-vessels observed based on digital camera image were counted by using Scion Image (Scion Corp.). The statistical analysis was performed as follows: Data were analyzed using Dunnett's test with randamized block design. The difference between test compound groups and non-treated group were considered statistical significant at P<0.05.

[3] = tested on: human aortic endothelial cells; test: Luminalization (tube formation) of vascular endothelial cells in gel; conditions: for Length of formed tube (Pixel): third day, mean ± SE, control 13.3 ± 0.4
Method: The test was conducted according to a report by Yasunaga, C. et al. (Lab Invest, 1989; 61: 698-704). Briefly, human aortic endothelial cells (Cambrex Corp.) were cultured in MCDB131 medium to confluent state. Cells prepared with medium containing the Test Compound A, 5×10^4 cells/well, were added on cell matrix gel (Nitta Gelatin Co.) and cultured for 4 hours to adhere cells. After medium removal, gel was added to embed cells, and medium containing the drug was added on the upper layer, then length of the formed tube was measured on the third day based on digital camera image by using Scion Image (Scion Corp.). The statistical analysis was performed as follows: Data were analyzed using Williams' test after linear regression analysis. The difference between test compound groups and non-treated group were considered statistical significant at P<0.05.

[4] = dose dependent manner, compared with non-treated control group

CCC(=O)Nc1c(C)cc(C(=O)N2CCC(N(C)CCc3ccccc3)CC2)cc1C [Test Compound A, 4-[N-methyl-N-(2-phenylethyl)amino]-1-(3,5-dimethyl-4-propionylaminobenzoyl)piperidine]
Number of Migration cell ([1]; Concentration 8 (−Log M)): 64 ± 7 | Number of Migration cell ([1]; Concentration 9 (−Log M)): 64 ± 8 | Number of Migration cell ([1]; Concentration 10 (−Log M)): 49 ± 6 | Number of Migration cell ([1]; Concentration 11 (−Log M)): 42 ± 6 | Number of Migration cell ([1]; Concentration 12 (−Log M)): 41 ± 8 | Effect on numbers of migration cells (in words) [1, 4]: significantly increased numbers of migration cells | Number of micro-vessels ([2]; Concentration 6 (−Log M)): 35 ± 4 | Number of micro-vessels ([2]; Concentration 7 (−Log M)): 33 ± 3 | Number of micro-vessels ([2]; Concentration 8 (−Log M)): 32 ± 4 | Number of micro-vessels ([2]; Concentration 9 (−Log M)): 27 ± 2 | Number of micro-vessels ([2]; Concentration 10 (−Log M)): 30 ± 3 | Number of micro-vessels ([2]; Concentration 11 (−Log M)): 22 ± 3 | Number of micro-vessels ([2]; Concentration 12 (−Log M)): 24 ± 3 | Effect on numbers of newly grown micro-vessels (in words) [2, 4]: significantly increased numbers of newly grown micro-vessels | Length of formed tube (Pixel) ([3]; Concentration 6 (−Log M)): 48.4 ± 5.3 Pixel | Length of formed tube (Pixel) ([3]; Concentration 7 (−Log M)): 32.2 ± 3.8 Pixel | Length of formed tube (Pixel) ([3]; Concentration 8 (−Log M)): 15.7 ± 0.9 Pixel | Effect on length of formed tube (in words) [3, 4]: significantly increased length of formed tube
